Laboratory results reported in patent US20230151065A1, “MULTI-DISULFIDE-BOND LONG-CHAIN PEPTIDE WITH NEURO[…], PHARMACEUTICAL COMPOSITION AND APPLICATION” (priority 2018, published 2023).

Columns and labels:
[1] = test system: primary cultured hippocampal neurons damaged by NMDA; assay: NMDA damage of primary cultured hippocampal neurons, MTT viability; format: cell-based, SD (Sprague-Dawley) rat; conditions: for hippocampal neuron activity after NMDA damage (MTT): MK801 10 μM
Excerpt: (1) Establishment of NMDA damage model. Primary culture of hippocampal neurons: SD (Sprague-Dawley) female rats pregnant for 18-19 days were anesthetized with a compound anaesthetic agent; fetal rat brains were taken under aseptic conditions and placed in HBSS solution (8.4 g/L of NaCl, 0.224 g/L of KCl, 2.38 g/L of HEPES, 500,000 units of penicillin sodium and 500,000 units of kanamycin sulfate; the pH was adjusted to 7.1-7.2 with 1M NaOH; then the osmotic pressure was adjusted to about 290±10 m Osm with ultrapure water; and after filtration, the solution was stored at 4° C.); the meninges were removed under a stereoscopic dissecting microscope; the bilateral hippocampus was removed and digested in 0.125% pancreatic protease at 37° C. for 10 min; and complete media (90% DMEM medium+10% FBS) (FBS: fetal bovine serum) was used to terminate the digestion; the bilateral hippocampus was washed for 3 times with the complete media to make a single cell suspension; the cell density was adjusted to about 7-8×10^5/ml; and the bilateral hippocampus was inoculated to a 6-well/96-well cell culture plate/60 mm culture dish/slide coated with L-polylysine. After 24 hours, the media were changed to serum-free neurobasal media (GIBCO) which were then placed in a 5% CO2, 37° C. incubator for culture; and half of the solution was changed every three days.
(2) NMDA damage treatment of hippocampal neurons: (1) The original media were sucked out and the cells were washed with magnesium-free extracellular fluid for three times, each for 5 minutes. (2) 10 mM NMDA (N-methyl-D-aspartic acid) and 10 mM Gly (glycine) were prepared with magnesium-free extracellular fluid, and NMDA was prepared to different concentrations with the magnesium-free extracellular fluid, wherein the final concentration of Gly was 10 μM. […] After damage, the cells were washed for three times with DMEM medium, each for 5 minutes. (3) The original culture media were re-added to continue for culturing for 24 hours.
(3) Detection of viability of hippocampal neurons after NMDA damage: (1) The hippocampal neurons were inoculated into a 96-well culture plate at 8×10^5 cells/ml, 0.1 ml per well, and cultured in a 5% CO2 incubator for 7-8 days. (2) After NMDA damage treatment and continuous culture for 24 hours, the culture solution was sucked off. (3) 100 μl of DMEM culture medium containing MTT (3-(4,5-dimethylthiazole-2)-2,5-diphenyltetrazolium bromide, 0.5 mg/ml) was added to each well, and the culture plate was put into 37° C., 5% CO2 incubator for culturing for 4 h. (4) 100 μl of 20% SDS was added to each well (20 g of sodium lauryl sulfate was dissolved in 50 ml of ddH2O+50 ml of N,N dimethylformamide) at 37° C. for 20 h. (5) The solution was shaken on a horizontal shaker for 5 min. (6) The optical density (OD) was measured at 570 nm (reference wavelength of 490 nm) on a microplate reader.
(6) Effect of ABPPk2 on decrease of hippocampal neuron activity caused by NMDA. Effect of different concentrations of ABPPk2 on hippocampal neuron damage caused by NMDA (100 μM, 30 min). The experiment was divided into 9 experimental groups: a normal group, NMDA (100 μM, 30 min) group (as a control group), ABPPk2 (0.01 μg/ml) group, ABPPk2 (0.1 μg/ml) group, ABPPk2 (0.3 μg/ml) group, ABPPk2 (1 μg/ml) group, ABPPk2 (3 μg/ml) group, ABPPk2 (10 μg/ml) group and MK801 (dizocilpine, 10 μM) group (as a positive control group). Three administration ways were adopted for ABPPk2: (1) ABPPk2 was administered 12 hours before and during the NMDA damage. (2) ABPPk2 was administered during NMDA damage. (3) ABPPk2 was administered during 24 hours of culture after NMDA damage.

[2] = test system: primary cultured SD fetal rat cortical neurons after OGD damage; assay: OGD damage of cortical neurons, Hoechst 33258 staining of apoptotic bodies; format: cell-based; conditions: OGD 2 h, 24 h reoxygenation; ABPPk2 8, 40, 200 ng/ml, dose-dependent; BDNF 10 ng/ml
Description: The suspension was filtered with a 400-mesh screen, centrifuged at 1000 rpm for 5 min, and blown to form the single cell suspension. DMEM high glucose complete medium (containing 10% fetal bovine serum) was inoculated in a culture dish or culture plate pre-coated with polylysine (PLL) to culture in 5% CO2 incubator with saturated humidity at 37° C. After the cells were cultured for 4 h to adhere to the wall, the cells were cultured with neuron culture medium (neurobasal+2% B27) for 3 d to observe the growth of neurons. The culture medium containing cytarabine (the final concentration of cytarabine was 2.5 μg/ml) was substituted with half quantity to culture for 3d to inhibit the growth of glial cells and miscellaneous cells to obtain purely cultured primary cortical nerve cells. The purity of the cortical neurons was identified by immunocytochemical staining as more than 90%.
After the cortical neurons were cultured to the 7th day, the original culture medium was sucked out, and the cells were rinsed twice with sugar-free DMEM basal medium, for 5 min each time. Each OGD damage group was added with DMEM sugar-free culture medium, placed in a Billups-Rothenberg anaerobic culture chamber, filled with 95% N2/5% CO2 to balance for 15 min, and sealed for 2 h to build an OGD model. […]

Molecule: C[C@]12N[C@H](Cc3ccccc31)c1ccccc12 [MK801, dizocilpine, reference compound]
- hippocampal neuron activity after NMDA damage (MTT) ([1]; given 12 h before and during NMDA (100 μM, 0.5 h), ABPPk2 0.1, 0.3 and 1 μg/ml groups): can effectively reduce the decrease of hippocampal neuron activity caused by NMDA damage
- hippocampal neuron activity after NMDA damage (MTT) ([1]; given during 24 h culture after NMDA damage (100 μM, 0.5 h), ABPPk2 0.1-10 μg/ml): can effectively reduce the decrease of hippocampal neuron activity caused by NMDA damage
- hippocampal neuron activity after NMDA damage (MTT) ([1]; given during NMDA damage (100 μM, 0.5 h), ABPPk2 1 and 10 μg/ml groups): can effectively reduce the decrease of hippocampal neuron activity caused by NMDA damage

Molecule: CLETSGSCIPGAQHNCCSGVCVPLVTLFYGVCY (Achyranthes bidentata Blume) [SEQ ID No: 3]
- protective effect on NMDA damage of primary hippocampal neurons ([1]; overall statement, experimental solution of embodiment 6, concentration and administration way not stated): can effectively reduce the decrease of hippocampal neuron activity caused by NMDA damage

B1: BDNF: positive control group, final concentration of 10 ng/ml (protein, UniProt P23560 19-247, looked up)
Neurotrophic factor BDNF …: APMKEANIRGQGGLAYPGVRTHGTLESVNGPKAGSRGLTSLADTFEHVIEELLDEDQKVRPNEENNKDADLYTSRVMLSSQVPLEPPLLFLLEEYKNYLDAANMSMRVRRHSDPARRGELSVCDSISEWVTAADKKTAVDMSGGTVTVLEKVPVSKGQLKQYFYETKCNPMGYTKEGCRGIDKRHWNSQCRTTQSYVRALTMDSKKRIGWRFIRIDTSCVCTLTIKRGR
- apoptotic bodies of cortical neuron nuclei [2]: the apoptotic bodies are reduced
